The text below walks through data of patent publication US9809640B2, “ApoE peptide dimers and uses thereof” (priority 2010, dated 2017).

Positions of bridges follow the written chain, without caps; N, C: chain ends. Chains are numbered I, II in the order given.

One series has as its system GSK-3β. Nature of the series: GSK-3β phosphorylation in MB231 cells, Western blot. The class given is cell-based. Particulars: markedly reduced at ≧100 nM. The source says:
FIG. 13A: Western blot and densitometry analysis of phosphorylated m-TOR levels in MDA-MB-231 cells treated with EGF and the indicated concentrations of COG445 in the presence or absence of okadaic acid. FIG. 13B: Western blot analysis of phosphorylated GSK-3β levels in MDA-MB-231 cells treated with EGF and the indicated concentrations of COG445 in the presence or absence of okadaic acid.
Akt exerts its proliferative signal by phosphorylating protein substrates such as mTOR and GSK-3β. To examine the effects of COG445 on downstream Akt signaling in MB231 cells, mTOR activation and GSK-3β inhibition was measured by western blot analysis. […] The reduction in mTOR and GSK-3β phosphorylation was eliminated in the presence of okadaic acid, further evidence that PP2A mediates the effects of COG445 on Akt signaling.

The subject of a further series is EGFR. Nature of the series: EGF-induced EGFR activation, Western blot. The series is classed as cell-based. Conditions: up to 1 μM, U87 and MB231, EGF. The source says: FIGS. 10A-10B. […] FIG. 10A: Western blot analysis of U87 glioblastoma cells exposed to the indicated concentrations of COG445 peptide in the presence of EGF. The blot is probed with antibodies for the activated EGF receptor (P-EGFR), total EGF receptor, activated PDK1 (P-PDK1), and total PDK1. FIG. 10B: Western blot and densitometry analysis of Akt activation induced by EGF in U87 cells in the presence of increasing concentrations of COG445.
Akt signaling is often dysregulated in cancers thereby promoting cellular survival and proliferation. […] Given the effect of ApoE peptides on other inflammatory pathologies, we investigated the effect of an ApoE peptide dimer on Akt signaling in breast and brain cancer cells. A disulfide dimer of COG112 (SEQ ID NO: 1) was prepared as described in Example 1 (COG445). Adherent breast cancer cells, MDA-MB-231 (MB231), or glioblastoma cells, U87-MG (U87), were serum starved overnight and then exposed to COG445 for 2 hours before stimulating with epidermal growth factor (EGF) for 5 minutes. […] EGFR activation results in the activation of the PI3K/Akt signaling pathway, which is mediated by PDK1 activation.

The test system of a further series is B-CLL cells. Nature of the series: Cytotoxicity on patient-derived B-CLL cells (MTS assay).
Another series concerns MB231 cells. Nature of the series: Apoptosis after 24 hours of COG445. The series is classed as cell-based. Conditions: 1-1000 nM.
In series [1] the test system is MDA-MB-231 breast cancer cells. The class given is cell-based. Particulars: MB231, ~24 hours. On the procedure:
FIG. 14A: Dose response curve of COG445 on proliferation of U87 (open circles) and MDA-MB-231 (filled circles) cells as measured by MTT reduction. FIG. 14B: Dose response curve of COG445 on proliferation of MDA-MB-231 cells as measured by cell count.
Next, we examined the potency of an ApoE peptide dimer versus the monomeric form on proliferation of the MDA-MB-231 breast cancer cell line. MDA-MB-231 cells were treated with various concentrations of either COG435 (monomer; SEQ ID NO: 90) or COG493 (a BMOE-linked dimer of COG 435) peptides for 48 hours. Following peptide treatment, cells were quantified using a MTT assay.
Because COG445 inhibited Akt activation and downstream signaling, we examined the effects of COG445 on cellular proliferation. Adherent MB231 and U87 cells were grown for ˜24 hours in the presence of COG445 and cellular proliferation was measured by MTT reduction. […] Furthermore, COG445 inhibited MB231 cellular proliferation as determined by cell count (FIG. 14B). Approximately 6×10^4 cells were plated in growth media (RPMI+10% FBS) for 24-hours with increasing concentrations of COG445. […] However at concentrations ≧1 μM COG445, there appears to be a loss of cells. This is partially explained by decreased proliferation, although it is possible that the rate of cellular degradation was increased in the presence of COG445.

On to “I: Ac-RQIKIWFQNRRMKWKKCLRVRLASHLRKLRKRLL-NH2 / II: Ac-RQIKIWFQNRRMKWKKCLRVRLASHLRKLRKRLL-NH2 (disulfide I:17-II:17) [COG445, COG112-C-C-COG112]”, for which the “GSK-3β phosphorylation upon EGF stimulation” value in the series on GSK-3β is given as “dose-dependent decrease”. In addition, the “EGFR activation (tyrosine 1045 phosphorylation)” value in the series with EGFR is “did not alter”. In the series with B-CLL cells (CLL EC50 relative to COG056 (rev133) = 1.0), the “Fold Change” value turned out to be 117.3. Besides, the EC50 with B-CLL cells (read-out: ED50 for cytotoxicity of CLL cells, purified disulfide dimer, dimer molecular weight) was 110 nM. Moreover, the apoptosis result in the series with MB231 cells is “no indication of apoptosis”. In addition, the “proliferation by MTT reduction” value in series [1] was “dose-dependent decrease”.
